In patent publication US20240409536A1, “COMPOUNDS AND METHODS FOR MODULATING SPLICING” (REMIX THERAPEUTICS INC., priority 2021, published 2024):
Counter-ions that a name gives are not always drawn.

Experiments:
[1] = tested on: HiBiT-tagged HTT protein; experiment: HiBiT protein abundance assay, HTT (K562 HiBiT knock-in cells); assay type: cell-based, human; details: 24 hours
Procedure, shortened: (§1)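 K562 cells with endogenous HiBiT knock-in tag, 10-point 3-fold dilutions (top 10 μM final, ≤0.25% DMSO), 24 h at 37 °C. Lytic Nano-Glo HiBiT luminescence, normalized to DMSO and unmodified K562 baselines; IC50 is concentration giving 50% protein abundance from four-parameter fit.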

[2] = tested on: Target C mRNA; experiment: Gene panel canonical junction qPCR assay, Target C CJ mRNA decrease; assay type: cell-based; details: Homo sapiens, canonical junction qPCR, read-out: Target C IC50 (decrease in CJ mRNA levels)
Procedure, shortened: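 A673 or K562 cells were treated with compound, and lysates underwent cDNA synthesis and qPCR with a CY5 5′-nuclease probe or primer spanning the canonical exon junction. ΔCt versus GAPDH, GUSB or PPIA was normalized to DMSO (2^(−ΔΔCt)), converted to percentage response and fitted four-parameter logistic for IC50.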

[3] = tested on: HiBiT-tagged MYB protein; experiment: HiBiT protein abundance assay, MYB (K562 HiBiT knock-in cells); assay type: cell-based, human; details: 24 hours
Procedure, shortened: as §1

[4] = tested on: K562 cells; experiment: Cell Titer Glo 2.0 cell viability assay in K562 cells; details: 72 hours
Description: Compounds described herein were screened for toxicity in K562 (human chronic myelogenous leukemia) and SH-SY5Y (human neuroblastoma) cells using a Cell Titer Glo 2.0 assay.
Cells were plated at 500 cells/well (K562 cells) in 45 μL of IMDM supplemented with 10% FBS in a 384-well opaque plate. Wells containing only medium were used as a blank control. Test compounds (e.g., compounds of Formula (I), (II), or (III)) were first serially diluted in DMSO then diluted 1:100 with IMDM+10% FBS. The final concentration of DMSO was 0.1% in each well. The cells were incubated for 72 hours at 37° C. and 5% CO2 before assaying with Cell Titer Glo 2.0 reagent.

Row | Compound | IC50 [1] [nM] | IC50 [2] [nM] | IC50 [3] [nM] | Viability [4]
1 | Cc1cn2cc(NC(=O)c3ccc(N4CCN[C@@H](C)C4)c4nccnc34)cc(F)c2n1 [Compound 187, N-{8-fluoro-2-methylimidazo[1,2-a]pyridin-6-yl}-8-(3-methylpiperazin-1-yl) quinoxaline-5-carboxamide] | 1000 to 10000 | > 10000 | < 100 | B (B represents 100-1000 nM)
2 | CN[C@@H]1CCN(c2ccc(C(=O)Nc3cc(F)c4nc(C)cn4c3)c3nc(OC)cnc23)C1 [Compound 204, (R)—N-{8-fluoro-2-methylimidazo[1,2-a]pyridin-6-yl}-3-methoxy-8-[3-(methylamino)pyrrolidin-1-yl]quinoxaline-5-carboxamide; trifluoroacetic acid] | 1000 to 10000 | > 10000 | 100 to 1000 | A (A represents <100 nM)
3 | Cc1cnc2c(N3C[C@@H](C)N[C@@H](C)C3)ccc(C(=O)Nc3cc(F)c4nc(C)cn4c3)c2n1 [Compound 216, 8-((3R,5S)-3,5-dimethylpiperazin-1-yl)-N-{8-fluoro-2-methylimidazo[1,2-a]pyridin-6-yl}-3-methylquinoxaline-5-carboxamide] | 1000 to 10000 | > 10000 | < 100 | C (C represents 1000-9999 nM)
4 | Cc1cc2c(N3CCNCC3)ccc(C(=O)Nc3cc(F)c4nc(C)cn4c3)c2nn1 [Compound 159] | 100 to 1000 | 1000 to 10000 | < 100 | A (A represents <100 nM)
5 | Cc1cn2cc(NC(=O)c3ccc(N4CCNC5(CCOCC5)C4)c4nccnc34)cc(F)c2n1 [Compound 374] | 1000 to 10000 | 1000 to 10000 | 100 to 1000 | B (B represents 100-1000 nM)
6 | Cc1cn2cc(NC(=O)c3ccc(C4CCNCC4)c4nccnc34)cc(F)c2n1 [Compound 371] | 100 to 1000 | 1000 to 10000 | 100 to 1000 | A (A represents <100 nM)
7 | Cc1cnc2c(N3CCC(N(C)C)CC3)ccc(C(=O)Nc3cc(F)c4nc(C)cn4c3)c2n1 [Compound 200, 8-[4-(dimethylamino)piperidin-1-yl]-N-{8-fluoro-2-methylimidazo[1,2-a]pyridin-6-yl}-3-methylquinoxaline-5-carboxamide] | < 100 | 100 to 1000 | < 100 | B (B represents 100-1000 nM)
8 | COCCOc1cc2c(N3CCNCC3)ccc(C(=O)Nc3cc(F)c4nc(C)cn4c3)c2nn1 [Compound 199, N-{8-fluoro-2-methylimidazo[1,2-a]pyridin-6-yl}-3-(2-methoxyethoxy)-5-(piperazin-1-yl)cinnoline-8-carboxamide] | 1000 to 10000 | > 10000 | < 100 | B (B represents 100-1000 nM)
9 | Cc1cn2cc(NC(=O)c3ccc(N4CCN(CCF)C5(CC5)C4)c4nccnc34)cc(F)c2n1 [Compound 370] | > 10000 | > 10000 | 1000 to 10000 | D (D represents greater than 10 μM in K562 cells)
10 | Cc1cnc2c(C(=O)Nc3cc(F)c4nc(C)cn4c3)ccc(N3CCC(N(C)C)CC3)c2n1 [Compound 208, 8-[4-(dimethylamino)piperidin-1-yl]-N-{8-fluoro-2-methylimidazo[1,2-a]pyridin-6-yl}-2-methylquinoxaline-5-carboxamide; bis(trifluoroacetic acid)] | 1000 to 10000 | > 10000 | < 100 | A (A represents <100 nM)
11 | Cc1cn2cc(NC(=O)c3ccc(N4CCC(N(C)C)CC4)c4ccnnc34)cc(F)c2n1 [Compound 137] | 100 to 1000 | 100 to 1000 | < 100 | A (A represents <100 nM)
12 | Cc1cn2cc(NC(=O)c3ccc(N4CCN5CCC[C@@H]5C4)c4ccnnc34)cc(F)c2n1 [Compound 153] | 1000 to 10000 | 1000 to 10000 | < 100 | B (B represents 100-1000 nM)
13 | Cc1ccc2c(N3CCC(N(C)C)CC3)ccc(C(=O)Nc3cc(F)c4nc(C)cn4c3)c2n1 [Compound 215, 5-[4-(dimethylamino)piperidin-1-yl]-N-{8-fluoro-2-methylimidazo[1,2-a]pyridin-6-yl}-2-methylquinoline-8-carboxamide] | 1000 to 10000 | 1000 to 10000 | < 100 | B (B represents 100-1000 nM)
14 | Cc1ccc2c(N3CCNCC3)ccc(C(=O)Nc3cc(F)c4nc(C)cn4c3)c2n1 [Compound 162, N-{8-fluoro-2-methylimidazo[1,2-a]pyridin-6-yl}-2-methyl-5-(piperazin-1-yl)quinoline-8-carboxam-ide, trifluoroacetic acid] | 100 to 1000 | 1000 to 10000 | < 100 | B (B represents 100-1000 nM)
15 | CNC1CCN(c2ccc(C(=O)Nc3cc(F)c4nc(C)cn4c3)c3nc(OC)cnc23)C1 (stereo not drawn) [Compound 202, N-{8-fluoro-2-methylimidazo[1,2-a]pyridin-6-yl}-3-methoxy-8-[3-(methylamino)pyrrolidin-1-yl]quinoxaline-5-carboxamide; bis(trifluoroacetic acid)] | 1000 to 10000 | > 10000 | < 100 | A (A represents <100 nM)

Now from value to molecule, other results behind:

Row | IC50 [1] [nM] | IC50 [2] [nM] | IC50 [3] [nM] | Compound | Viability [4]
16 | > 10000 | > 10000 | 1000 to 10000 | CC(=O)c1cc(NC(=O)c2ccc(N3CCNCC3)c3ccnnc23)cn2cc(C)nc12 [Compound 163, N-{8-acetyl-2-methylimidazo[1,2-a]pyridin-6-yl}-5-(piperazin-1-yl)cinnoline-8-carboxamide] | C (C represents 1000-9999 nM)
17 | 1000 to 10000 | > 10000 | < 100 | COc1nc(NC(=O)c2ccc(N3CCNCC3)c3ccnnc23)cn2cc(C)nc12 [Compound 179, N-{8-methoxy-2-methylimidazo[1,2-a]pyrazin-6-yl}-5-(piperazin-1-yl)cinnoline-8-carboxamide] | B (B represents 100-1000 nM)
18 | 1000 to 10000 | 1000 to 10000 | 100 to 1000 | Cc1cn2cc(NC(=O)c3ccc(N4CCNCC4)c4ccnnc34)cc(C)c2n1 [Compound 125] | B (B represents 100-1000 nM)
19 | > 10000 | > 10000 | > 10000 | Cc1cn2cc(NC(=O)c3ccc(N4CCNCC4)c4ccnnc34)cc(C(C)O)c2n1 (stereo not drawn) [Compound 182, N-[8-(1-hydroxyethyl)-2-methylimidazo[1,2-a]pyridin-6-yl]-5-(piperazin-1-yl)cinnoline-8-carboxamide trifluoroacetate] | D (D represents greater than 10 μM in K562 cells)
20 | 1000 to 10000 | 1000 to 10000 | 1000 to 10000 | Cc1cn2nc(NC(=O)c3ccc(N4CCNCC4)c4ccnnc34)cc2c(C)n1 [Compound 123] | C (C represents 1000-9999 nM)
21 | 100 to 1000 | 100 to 1000 | 100 to 1000 | Cc1cn2cc(NC(=O)c3ccc(N4CCNCC4)c4ccnnc34)[nH]c(=O)c2n1 [Compound 177, N-{2-methyl-8-oxo-7H-imidazo[1,2-a]pyrazin-6-yl}-5-(piperazin-1-yl)cinnoline-8-carboxamide trifluoroacetic acid salt] | B (B represents 100-1000 nM)
